Experimental data from PMC11855827, “High-Throughput Screening of Five Compound Libraries for Anthelmintic Activity and Toxicity Leads to the Discovery of Two Flavonoid Compounds” (International Journal of Molecular Sciences, 2025).
Structures can show the parent of a compound that is named as a salt. Where two headings read alike, the source gives them in different places.

System: C. elegans
Test: microbe, parasite or virus in culture
Details: Caenorhabditis elegans
[1] = 0 h, read-out: Percentage of motility inhibition 0 h, Table S2, C. elegans SS assay, 110 μM, 0 h, averages of 4 data points
[2] = 24 h, read-out: Percentage of motility inhibition 24 h, Table S2, C. elegans SS assay, 110 μM, 24 h, averages of 4 data points
[3] = 0 h, read-out: Percentage of motility inhibition 0 h
[4] = 24 h, read-out: Percentage of motility inhibition 24 h

Row | SMILES | inhibition at 110 µM [1] [%] | inhibition at 110 µM [2] [%] | inhibition at 110 µM [3] [%] | inhibition at 110 µM [4] [%]
1 | O[C@H]1[C@H]2c3cc4c(cc3CN3CCC(=C[C@@H]1O)[C@H]23)OCO4 [Lycorine] | 34 | 0 | – | –
2 | CN1[C@@H]2CC[C@H]1C[C@@H](OC(=O)[C@H](CO)c1ccccc1)C2 [L‐Hyoscyamine] | – | – | 16 | 12
3 | C[C@H]1[C@H](C)CC[C@]2(C(=O)O)CC[C@]3(C)C(=CC[C@@H]4[C@@]5(C)C[C@@H](O)[C@H](O)[C@@](C)(CO)[C@@H]5[C@H](O)C[C@]43C)[C@H]12 [Madecassic acid] | 1 | 31 | – | –
4 | C=CCc1ccc(O)c(-c2cc(CC=C)ccc2O)c1 [Magnolol] | 0 | 14 | – | –
5 | O=C1C=CC(=O)N1 [Maleimide] | 25 | 32 | – | –
6 | O=C(O)CC(O)C(=O)O (centres unmarked) [Malic acid] | 2 | 14 | – | –
7 | C=C1[C@@H]2CC[C@@H]3[C@](C2)(C(=O)[C@@H](O)[C@@H]2C(C)(C)[C@H]4CC(=O)[C@@]32CO4)[C@@H]1OC(C)=O [Maoecrystal A] | 7 | 2 | – | –
8 | CN1CCN(c2c(F)cc3c(=O)c(C(=O)O)cn4c3c2OCN4C)CC1 [Marbofloxacin] | 23 | 9 | – | –
9 | CC1(C)CC[C@]2(C(=O)O)CC[C@]3(C)C(=CC[C@@H]4[C@@]5(C)C[C@@H](O)[C@H](O)C(C)(C)[C@@H]5CC[C@]43C)[C@@H]2C1 [Maslinic acid] | 0 | 5 | – | –
10 | C[C@H](Cc1ccc(O)c(O)c1)[C@@H](C)Cc1ccc(O)c(O)c1 [Masoprocol] | 7 | 17 | – | –
11 | O=C1CCC[C@@H]2[C@H]3CCCN4CCC[C@@H](CN12)[C@@H]34 [Matrine] | – | 2 | – | –
12 | COc1cc2cc(c1Cl)N(C)C(=O)CC(O)C1(C)OC1C(C)C1CC(O)(NC(=O)O1)C(OC)/C=C/C=C(\C)C2 (centres unmarked) [Maytansinol] | 0 | 0 | – | –
13 | COC(=O)Nc1nc2ccc(C(=O)c3ccccc3)cc2[nH]1 [Mebendazole] | 18 | 37 | – | –
14 | CC(=O)O[C@]1(C(C)=O)CC[C@H]2[C@@H]3C[C@H](C)C4=CC(=O)CC[C@]4(C)[C@H]3CC[C@@]21C [Medroxyprogesterone acetate] | 11 | 6 | – | –
15 | CN1C(=O)/C(=C2/C(=O)Nc3ccccc32)c2ccccc21 [Meisoindigo] | 0 | 0 | – | –
16 | COc1ccc2[nH]cc(CCNC(C)=O)c2c1 [Melatonin] | 66 | 24 | – | –
17 | CC1=CC(=O)c2ccccc2C1=O [Menadione] | 0 | 0 | – | –
18 | CC(C)[C@@H]1CC[C@@H](C)CC1=O [Menthone] | 17 | 17 | – | –
19 | COc1ccc(O)cc1 [Mequinol] | 16 | 11 | – | –

Row | SMILES | inhibition at 110 µM [1] [%] | inhibition at 110 µM [2] [%] | inhibition at 110 µM [3] [%] | inhibition at 110 µM [4] [%]
20 | COc1c2occc2cc2ccc(=O)oc12 [Methoxsalen] | 23 | 5 | – | –
21 | COC(=O)c1ccccc1O [Methyl Salicylate] | 21 | 12 | – | –
22 | COC(=O)[C@]12CCCC(C)(C)[C@@H]1CCc1cc(C(C)C)c(O)c(O)c12 [Methyl carnosate] | 0 | 63 | – | –
23 | COC(=O)c1cccnc1 [Methyl nicotinate] | – | – | 0 | 0
24 | Cc1ncc([N+](=O)[O-])n1CCO [Metronidazole] | 34 | 14 | – | –
25 | C=C1C(=O)O[C@H]2[C@H]1CCC(C)=C1CC[C@@](C)(O)[C@@H]12 [Micheliolide] | 0 | 0 | – | –
26 | CCC(=O)O[C@@H]1CC(=O)O[C@H](C)C/C=C/C=C/[C@H](O)[C@H](C)C[C@H](CC=O)[C@H](O[C@@H]2O[C@H](C)[C@@H](O[C@H]3C[C@@](C)(O)[C@@H](OC(=O)CC)[C@H](C)O3)[C@H](N(C)C)[C@H]2O)[C@H]1OC [Midecamycin] | 16 | 14 | – | –
27 | CC(C)C1=Cc2ccc3c(c2C(=O)C1=O)CCCC3(C)C [Miltirone] | 0 | 36 | – | –
28 | NC(=O)c1ncn([C@@H]2O[C@H](CO)[C@@H](O)[C@H]2O)c1O [Mizoribine] | 28 | 29 | – | –
29 | C[C@H](CC[C@@H](O)C(C)(C)O)[C@H]1CC[C@@]2(C)[C@@H]3CC=C4[C@@H](CC[C@H](O)C4(C)C)[C@]3(C)[C@H](O)C[C@]12C [Mogrol] | 5 | 2 | – | –
30 | COC(=O)c1c2c(c3ccccc3c1O)OC(C)(C)C=C2 [Mollugin] | 1 | 12 | – | –
31 | C[C@H]1C(=O)O[C@@H]2CC[N+]3([O-])CC=C(COC(=O)[C@](C)(O)[C@]1(C)O)[C@H]23 (some centres unmarked) [Monocrotaline N‐Oxide] | 0 | 0 | – | –
32 | COC(=O)/C=C/C(=O)O [Monomethyl fumarate] | 0 | 15 | – | –
33 | O=c1c(O)c(-c2ccc(O)cc2O)oc2cc(O)cc(O)c12 [Morin] | 44 | 17 | – | –
34 | COC(=O)C1=CO[C@@H](O[C@@H]2O[C@H](CO)[C@@H](O)[C@H](O)[C@H]2O)[C@@H]2[C@H](C)O[C@@H](O)C[C@H]12 [Morroniside] | 5 | 42 | – | –
35 | CC(C)=CCc1c(-c2ccc(O)cc2O)oc2c3c(cc(O)c2c1=O)OC(C)(C)C=C3 [Morusin] | 33 | 14 | – | –
36 | C[C@@]12C[C@@]3(O)O[C@@H](O1)[C@]1(COC(=O)c4ccc(O)cc4)[C@@H]3C[C@]12O[C@@H]1O[C@H](COC(=O)c2ccccc2)[C@@H](O)[C@H](O)[C@H]1O [Mudanpioside C] | 23 | 41 | – | –
37 | C/C(=C\C(=O)OCCCCCCCCC(=O)O)C[C@@H]1OC[C@H](C[C@@H]2O[C@H]2[C@@H](C)[C@H](C)O)[C@@H](O)[C@H]1O [Mupirocin] | 10 | 11 | – | –
38 | CCCCC(C#N)(Cn1cncn1)c1ccc(Cl)cc1 (centres unmarked) [Myclobutanil] | 30 | 12 | – | –

Row | SMILES | inhibition at 110 µM [1] [%] | inhibition at 110 µM [2] [%] | inhibition at 110 µM [3] [%] | inhibition at 110 µM [4] [%]
39 | c1cncc(C2=NCCC2)c1 [Myosmine] | 18 | 24 | – | –
40 | C=CC(=C)CCC=C(C)C [Myrcene] | 8 | 23 | – | –
41 | O=c1c(O)c(-c2cc(O)c(O)c(O)c2)oc2cc(O)cc(O)c12 [Myricetin] | – | – | 30 | 7
42 | CC1CCc2c(N3CCC(O)CC3)c(F)cc3c(=O)c(C(=O)O)cn1c23 (centres unmarked) [Nadifloxacin] | 0 | 0 | – | –
43 | CCCCCCCCCC(=O)O[C@H]1CC[C@H]2[C@@H]3CCC4=CC(=O)CC[C@@H]4[C@H]3CC[C@]12C [Nandrolone decanoate] | 29 | 31 | – | –
44 | COc1cc(-c2oc3cc(O)cc(O)c3c(=O)c2O[C@@H]2O[C@H](CO[C@@H]3O[C@@H](C)[C@H](O)[C@@H](O)[C@H]3O)[C@@H](O)[C@H](O)[C@H]2O)ccc1O [Narcissin] | 42 | 25 | – | –
45 | C[C@@H]1CCC=C2C(=O)C[C@H]3OOC(C)(C)[C@H]3[C@]21C [Nardosinone] | 0 | 13 | – | –
46 | C[C@@H]1O[C@@H](O[C@H]2[C@H](Oc3cc(O)c4c(c3)O[C@H](c3ccc(O)cc3)CC4=O)O[C@H](CO)[C@@H](O)[C@@H]2O)[C@H](O)[C@H](O)[C@H]1O [Naringin] | 0 | 3 | – | –
47 | C[C@@H]1O[C@@H](OC[C@H]2O[C@@H](Oc3cc(O)c4c(c3)O[C@H](c3ccc(O)cc3)CC4=O)[C@H](O)[C@@H](O)[C@@H]2O)[C@H](O)[C@H](O)[C@H]1O [Narirutin] | 39 | 19 | – | –
48 | C[C@@H]1C/C=C/C=C/C=C/C=C/[C@H](O[C@@H]2O[C@H](C)[C@@H](O)[C@H](N)[C@@H]2O)C[C@@H]2O[C@](O)(C[C@@H](O)C[C@H]3O[C@@H]3/C=C/C(=O)O1)C[C@H](O)[C@H]2C(=O)O [Natamycin] | 26 | 0 | – | –
49 | COc1ccc(C[C@@H]2c3cc(Oc4cc(C[C@@H]5c6cc(OC)c(OC)cc6CCN5C)ccc4O)c(OC)cc3CCN2C)cc1 [Neferine] | – | – | 25 | 9
50 | C=C1CC[C@@H]2[C@](C)(CO[C@@H]3O[C@H](CO)[C@@H](O)[C@H](O)[C@H]3O)CCC[C@@]2(C)[C@@H]1CCC1=CCOC1=O [Neoandrographolide] | 15 | 40 | – | –
51 | CC(C)=CCc1cc(-c2coc3cc(O)ccc3c2=O)ccc1O [Neobavaisoflavone] | 10 | 21 | – | –
52 | C[C@H](CO)C1=C(O)C(=O)c2c(ccc3c2CCCC3(C)C)C1=O [Neocryptotanshinone] | 18 | 25 | – | –
53 | COc1ccc(CCC(=O)c2c(O)cc(O[C@@H]3O[C@H](CO)[C@@H](O)[C@H](O)[C@H]3O[C@@H]3O[C@@H](C)[C@H](O)[C@@H](O)[C@H]3O)cc2O)cc1O [Neohesperidin dihydrochalcone] | 10 | 2 | – | –
54 | CC[C@@H]1[C@H]2CCCCN3[C@H]2[C@@H](C[C@H]3[C@@H]2C[C@H](C)C(=O)O2)[C@H]2[C@@H]1OC(=O)[C@H]2C [Neotuberostemonine] | 0 | 9 | – | –
55 | COc1ccc(-c2cc(=O)c3c(O)c(OC)c(O)c(OC)c3o2)cc1 [Nevadensin] | 39 | 0 | – | –
56 | Cc1ccnc2c1NC(=O)c1cccnc1N2C1CC1 [Nevirapine] | 10 | 6 | – | –
57 | O=C(O)c1cccnc1 [Niacin] | 0 | 14 | – | –
